Some test systems named below: BT-549; HOP-92; K562; LOX IMVI; M14; MCF7; MDA-N; Malme-3M; NCI-H460; OVCAR-5; OVCAR-8; SK-MEL-5; SNB-19; SNB-75; SR; SW-620; T47D; UACC-257; UACC-62.
What all share (assay): growth of human tumour cells (NCI), 48 h

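Each compound was tested at five concentrations against cells in 96-well plates for 48 hours. Here, GI50 denotes the concentration required for 50% inhibition of growth.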 Activity calls are given as the source filed them. Cut-off read from the data, not from the text of the source: active = GI50 up to about 1.1 µM and inactive = higher.

From ChEMBL document CHEMBL1201862, “PubChem BioAssay data set” (2004) come the findings set out here.

For the compound `CC(=O)Nc1c(C)cc(OCC(=O)O)cc1C`, the GI50 in the test on BT-549, in the test with HOP-92, with K562, with LOX IMVI, in the test with M14 and in the test with MCF7 was > 100 µM (inactive) throughout. Also, the GI50 in the test on MDA-N, in the test with Malme-3M, with NCI-H460, in the test with OVCAR-5, in the test on OVCAR-8 and with SK-MEL-5 was > 100 µM (inactive) throughout. Besides, the GI50 with SNB-19, with SNB-75, with SR, with SW-620, in the test on T47D and in the test on UACC-257 was > 100 µM (inactive) throughout. The GI50 in the test on UACC-62 was > 100 µM (inactive).
As for `O=C(c1ccccc1)n1c(Cc2ccccc2)nc2cc(C34CC5CC(CC(C5)C3)C4)ccc21`, the GI50 was 46.5 µM (inactive) in the test on BT-549; 24 µM (inactive) with HOP-92; > 100 µM (inactive) in the test on K562; 30.5 µM (inactive) with LOX IMVI; 43.4 µM (inactive) with M14; 24.4 µM (inactive) with MCF7. In addition, the GI50 in the test on MDA-N was 47 µM (inactive); in the test with Malme-3M it was 29.3 µM (inactive); in the test on NCI-H460, 52.7 µM (inactive); with OVCAR-5 it was 56.8 µM (inactive); with OVCAR-8 it was 37.2 µM (inactive); with SK-MEL-5 it was 27 µM (inactive). Further, the GI50 in the test on SNB-19 is 58.1 µM (inactive); in the test with SNB-75 it was 31.6 µM (inactive); in the test with SR it was 39.6 µM (inactive); with SW-620 it was 80.7 µM (inactive); with T47D it was 36.7 µM (inactive); with UACC-257, 53.1 µM (inactive). For the same compound, the GI50 in the test on UACC-62 was 48.6 µM (inactive).
On to `O=S1(=O)c2ccccc2NC(=S)N1c1ccccc1`, for which the GI50 is 47.6 µM (inactive) in the test on BT-549; 3.89 µM (inactive) in the test on HOP-92; 49.1 µM (inactive) in the test on K562; 26.7 µM (inactive) in the test on LOX IMVI; 29.5 µM (inactive) in the test on M14; 63.2 µM (inactive) in the test with MCF7. For the same compound, the GI50 in the test with MDA-N is 36 µM (inactive); in the test on Malme-3M, 46.1 µM (inactive); with NCI-H460, > 79.1 µM (inactive); in the test with OVCAR-5 it was 92.9 µM (inactive); in the test with OVCAR-8, 34.6 µM (inactive); in the test on SK-MEL-5, 32 µM (inactive). The GI50 in the test with SNB-19 is 7.1 µM (inactive); in the test with SNB-75, 2.61 µM (inactive); with SR, 44.8 µM (inactive); in the test on SW-620 it was > 100 µM (inactive); in the test on T47D, 69.5 µM (inactive); with UACC-257, 40 µM (inactive). For the same compound, the GI50 in the test with UACC-62 is 65.9 µM (inactive).
As for `C=C1CCCC(C)(C)C1CCC1(C)CCC(C(C)C(=O)OC)OO1` (centres undefined), the GI50 is 4.9 µM (inactive) in the test on BT-549; 0.764 µM (active) with HOP-92; 8.89 µM (inactive) with K562; 0.471 µM (active) with LOX IMVI; 9.66 µM (inactive) in the test with M14; > 21.5 µM (inactive) with MCF7. Besides, the GI50 in the test on MDA-N was 3.73 µM (inactive); in the test with Malme-3M it was > 22.9 µM (inactive); in the test with NCI-H460, 0.908 µM (active); in the test on OVCAR-5 it was 6.75 µM (inactive); with OVCAR-8, 6.62 µM (inactive); in the test with SK-MEL-5 it was 5.19 µM (inactive). The GI50 with SNB-19 was 9.08 µM (inactive); in the test on SNB-75, 3.15 µM (inactive); in the test on SR it was 3.02 µM (inactive); with SW-620, 7.6 µM (inactive); in the test on T47D it was 4.32 µM (inactive); with UACC-257, > 20.2 µM (inactive). For the same compound, the GI50 with UACC-62 was 5.62 µM (inactive).
Take `O=c1c2ccccc2[se]n1-c1cccnc1`: the GI50 is 31.3 µM (inactive) with BT-549; 15.9 µM (inactive) with HOP-92; 40.6 µM (inactive) with K562; 24.5 µM (inactive) with LOX IMVI; 30.7 µM (inactive) in the test with M14; 29.4 µM (inactive) in the test with MCF7. The GI50 in the test on MDA-N is 22.6 µM (inactive); in the test on Malme-3M, 21.7 µM (inactive); with NCI-H460 it was 53.6 µM (inactive); with OVCAR-5 it was 46.2 µM (inactive); in the test with OVCAR-8 it was 24.9 µM (inactive); in the test on SK-MEL-5 it was 12.9 µM (inactive). Besides, the GI50 was 49.4 µM (inactive) in the test on SNB-19; 18.1 µM (inactive) in the test with SNB-75; 34.7 µM (inactive) with SR; 29 µM (inactive) in the test with SW-620; 21.7 µM (inactive) in the test on T47D; 23.4 µM (inactive) in the test on UACC-257. Also, the GI50 in the test on UACC-62 was 13 µM (inactive).
Take `CC(C)(C)N(Cc1ccccc1)C(=O)/C=C\[S+]([O-])c1ccccc1` (centres undefined): the GI50 in the test on BT-549 was 2.94 µM (inactive); in the test with HOP-92 it was 3.37 µM (inactive); with K562 it was 2.22 µM (inactive); in the test with LOX IMVI, 1.73 µM (inactive); in the test on M14 it was 2.51 µM (inactive); with MCF7, 2.92 µM (inactive). In addition, the GI50 with MDA-N was 2.16 µM (inactive); in the test on Malme-3M, 1.69 µM (inactive); in the test on NCI-H460 it was 4.1 µM (inactive); with OVCAR-5 it was 13.6 µM (inactive); with OVCAR-8 it was 1.84 µM (inactive); with SK-MEL-5, 5.25 µM (inactive). The GI50 in the test on SNB-19 is 9.77 µM (inactive); with SNB-75, 10.9 µM (inactive); in the test on SR, 1.58 µM (inactive); with SW-620, 2.15 µM (inactive); in the test with T47D, 4.2 µM (inactive); in the test with UACC-257 it was 5.08 µM (inactive). The GI50 with UACC-62 was 4.39 µM (inactive).
In the case of `CC(C)(C)OC(=O)NC(Cc1ccc(OCc2ccccc2)cn1)C(=O)N1CCSCC1` (centres undefined), the GI50 with BT-549 was 27.9 µM (inactive); with HOP-92 it was 47.4 µM (inactive); in the test on K562, 31.7 µM (inactive); with LOX IMVI, 28.3 µM (inactive); with M14 it was 54.8 µM (inactive); with MCF7 it was 38.3 µM (inactive). In addition, the GI50 was 40.8 µM (inactive) in the test on MDA-N; 46.5 µM (inactive) with Malme-3M; 38 µM (inactive) in the test with NCI-H460; 93.1 µM (inactive) with OVCAR-5; 40.1 µM (inactive) with OVCAR-8; 16.3 µM (inactive) with SK-MEL-5. Also, the GI50 with SNB-19 is > 100 µM (inactive); with SNB-75 it was 24 µM (inactive); in the test on SR, 27 µM (inactive); in the test with SW-620 it was 81.7 µM (inactive); with T47D, 20.8 µM (inactive); with UACC-257, 26.4 µM (inactive). Moreover, the GI50 with UACC-62 was 52.5 µM (inactive).
For `CCN(CC)C(=O)Cn1c(-c2ccccc2)cc2ccccc21`, the GI50 is 33 µM (inactive) in the test with BT-549; 27.7 µM (inactive) in the test on HOP-92; 25.8 µM (inactive) in the test on K562; 25.4 µM (inactive) with LOX IMVI; 87.3 µM (inactive) in the test on M14; 33.5 µM (inactive) in the test on MCF7. In addition, the GI50 in the test with MDA-N is 28.1 µM (inactive); in the test on Malme-3M it was 80.4 µM (inactive); in the test on NCI-H460, 36.4 µM (inactive); in the test on OVCAR-5, 43.1 µM (inactive); in the test on OVCAR-8, 35.9 µM (inactive); in the test with SK-MEL-5, 15.6 µM (inactive). Further, the GI50 with SNB-19 was 42.8 µM (inactive); in the test with SNB-75, 41.5 µM (inactive); in the test with SR it was 32.5 µM (inactive); in the test with SW-620, 43.2 µM (inactive); in the test on T47D, 42 µM (inactive); in the test with UACC-257, 41.9 µM (inactive). The GI50 in the test on UACC-62 is > 10 µM (inactive).
`C#CCn1ncc2c(SCc3ccccc3)ncnc21`: the GI50 in the test with BT-549 was > 100 µM (inactive); with HOP-92, > 100 µM (inactive); with K562, 52.7 µM (inactive); in the test on LOX IMVI, > 100 µM (inactive); in the test on M14, 50.7 µM (inactive); with MCF7 it was 11.4 µM (inactive). The GI50 is > 100 µM (inactive) in the test with MDA-N; > 100 µM (inactive) with Malme-3M; > 100 µM (inactive) in the test on NCI-H460; > 100 µM (inactive) in the test on OVCAR-5; > 100 µM (inactive) in the test with OVCAR-8; 36.1 µM (inactive) in the test with SK-MEL-5. Further, the GI50 in the test with SNB-19 was > 100 µM (inactive); in the test with SNB-75, 40.8 µM (inactive); with SR, 18.8 µM (inactive); in the test with SW-620, > 100 µM (inactive); with T47D it was 3.05 µM (inactive); with UACC-257, 70 µM (inactive). In the test with UACC-62, the GI50 is > 100 µM (inactive).
Take `CC(=O)c1ccc(Nc2c3ccccc3nc3occc23)cc1`: the GI50 is 2.12 µM (inactive) in the test with BT-549; 2.56 µM (inactive) with HOP-92; < 0.01 µM (active) with K562; < 0.0143 µM (active) with LOX IMVI; < 0.01 µM (active) in the test on M14; < 0.01 µM (active) in the test on MCF7. For the same compound, the GI50 in the test on MDA-N is < 0.01 µM (active); in the test on Malme-3M it was < 0.01 µM (active); in the test on NCI-H460 it was 0.01 µM (active); in the test with OVCAR-5 it was 0.327 µM (active); with OVCAR-8, 0.0174 µM (active); with SK-MEL-5 it was < 0.0219 µM (active). Also, the GI50 with SNB-19 is < 0.0168 µM (active); with SNB-75 it was 0.0109 µM (active); in the test with SR, < 0.01 µM (active); with SW-620, < 0.01 µM (active); in the test with T47D it was 0.011 µM (active); with UACC-257, 17.1 µM (inactive). Also, the GI50 with UACC-62 was < 0.01 µM (active).
Take `CN(C)CCNC(=O)c1cccc2nc3c(nc12)-c1ccccc1C3=O`: the GI50 in the test with BT-549 is 14.3 µM (inactive); with HOP-92, 16.4 µM (inactive); with K562, 3.16 µM (inactive); in the test on LOX IMVI, 2.83 µM (inactive); with M14, 15.8 µM (inactive); with MCF7, 6.34 µM (inactive). The GI50 in the test with MDA-N is 9.89 µM (inactive); with Malme-3M, 9.95 µM (inactive); in the test with NCI-H460, 4.99 µM (inactive); in the test on OVCAR-5, 24.8 µM (inactive); in the test on OVCAR-8 it was 16.4 µM (inactive); in the test with SK-MEL-5, 12.1 µM (inactive). Besides, the GI50 in the test with SNB-19 is 18.3 µM (inactive); in the test on SNB-75 it was 13.8 µM (inactive); in the test on SR, 1.14 µM (inactive); in the test with SW-620, 6.43 µM (inactive); in the test on T47D, 12.9 µM (inactive); in the test on UACC-257, 13.4 µM (inactive). Further, in the test with UACC-62, the GI50 was 19.1 µM (inactive).
